In patent publication US12595252B2, “Inhibitors of SARM1” (DISARM THERAPEUTICS, INC., priority 2019, dated 2026):

Target: T1, SARM1 (Homo sapiens, UniProt Q6SZW1)
T1 construct: made in house; host or cells: NRK1-HEK293T cells, transiently transfected; clarified lysate used unpurified
T1 sequence (Q6SZW1 with tags, fused parts or gaps): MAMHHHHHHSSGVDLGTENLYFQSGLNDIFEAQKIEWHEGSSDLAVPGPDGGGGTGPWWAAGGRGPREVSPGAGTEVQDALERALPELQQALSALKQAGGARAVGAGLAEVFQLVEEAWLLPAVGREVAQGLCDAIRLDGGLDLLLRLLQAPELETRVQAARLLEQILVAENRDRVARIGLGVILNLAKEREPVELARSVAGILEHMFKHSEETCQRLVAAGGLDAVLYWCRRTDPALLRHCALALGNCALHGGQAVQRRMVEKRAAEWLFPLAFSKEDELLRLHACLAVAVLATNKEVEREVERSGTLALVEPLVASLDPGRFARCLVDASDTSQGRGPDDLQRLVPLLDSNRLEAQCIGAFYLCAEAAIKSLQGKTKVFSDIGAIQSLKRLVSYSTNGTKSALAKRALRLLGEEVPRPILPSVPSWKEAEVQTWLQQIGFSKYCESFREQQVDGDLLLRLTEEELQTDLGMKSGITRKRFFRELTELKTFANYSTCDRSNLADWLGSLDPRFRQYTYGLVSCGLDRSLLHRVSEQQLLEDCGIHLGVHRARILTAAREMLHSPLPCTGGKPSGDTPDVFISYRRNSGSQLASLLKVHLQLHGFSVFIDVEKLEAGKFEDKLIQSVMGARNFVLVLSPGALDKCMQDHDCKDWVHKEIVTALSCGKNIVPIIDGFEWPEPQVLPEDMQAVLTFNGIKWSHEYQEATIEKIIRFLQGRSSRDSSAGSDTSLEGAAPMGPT
Experiment: ARM-SAM-TIR SARM1 IC50 assay (NADase activity, NAD+ cleavage)
Format: biochemical
Conditions: ARM-SAM-TIR lysate 5 μg/mL from NRK1-HEK293T cells; 2 h pre-incubation; 5 μM NAD+; 2 hr room temperature; NAD+ and ADPR by RapidFire MS; read-out: SARM1 IC50
Procedure: This Example describes an assay of ARM-SAM-TIR NADase activity and use of this assay to measure the efficacy of compounds of Formula I to block SARM1 mediated NAD+ cleavage. This assay is optimized in such a way as to characterize the efficacy of the compounds in Formula I to inhibit SARM1 activity and to calculate an IC50 value for each compound. This assay makes use of full length SARM1, which encompasses the ARM, SAM and TIR domains.
NRK1-HEK293T cells were seeded onto 150 cm^2 plates at 20×10^6 cells per plate. The next day, the cells were transfected with 15 μg ARM-SAM-TIR expression plasmid, SEQ ID NO: 1.
The cultures were supplemented with 1 mM NR at time of transfection to minimize toxicity from ARM-SAM-TIR overexpression. Forty-eight hours after transfection, cells were harvested, pelleted by centrifugation at 1,000 rpm (Sorvall ST 16R centrifuge, Thermo Fisher), and washed once with cold PBS (0.01 M phosphate buffered saline NaCl 0.138 M; KCl 0.0027 M; pH 7.4). The cells were resuspended in PBS with protease inhibitors (cOmplete™ protease inhibitor cocktail, Roche product #11873580001) and cell lysates were prepared by sonication (Branson Sonifer 450, output=3, 20 episodes of stroke). The lysates were centrifuged (12,000×g for 10 min at 4° C.) to remove cell debris and the supernatants (containing ARM-SAM-TIR protein) were stored at −80° C. for later use in the in vitro ARM-SAM-TIR NADase assay (see below). Protein concentration was determined by the Bicinchoninic (BCA) method and used to normalize lysate concentrations.
The enzymatic assay was performed in a 384-well polypropylene plate in Dulbecco's PBS buffer in a final assay volume of 20 μL. ARM-SAM-TIR lysate with a final concentration of 5 μg/mL was pre-incubated with the respective compound at 1% DMSO final assay concentration over 2 h at room temperature. The reaction was initiated by addition of 5 μM final assay concentration of NAD+ as substrate. After a 2 hr room temperature incubation, the reaction was terminated with 40 μL of stop solution of 7.5% trichloroacetic acid in acetonitrile. The NAD+ and ADPR concentrations were analyzed by a RapidFire High Throughput Mass Spectrometry System (Agilent Technologies, Santa Clara, Calif.) using an API4000 triple quadrupole mass spectrometer (AB Sciex Framingham, Mass.).

SMILES	IC50
COc1cncc(S(=O)(=O)NCc2ccccc2)c1 [Example 207]	> 30 µM
COc1cncc(N(C)S(=O)(=O)c2ccccc2)c1 [Example 208]	> 30 µM
COc1cncc(NS(=O)(=O)c2ccccc2)c1 [Example 209]	> 30 µM
COc1cncc(NCC2CCCOC2)n1 (stereo not drawn) [Example 210]	> 30 µM
COc1cncc(NCc2cccc(S(N)(=O)=O)c2)n1 [Example 211]	5 to 15 µM
NC(=O)c1cncc(NCc2cccnc2)n1 [Example 212]	> 30 µM
CN(C)C(=O)c1cncc(NCc2cccnc2)n1 [Example 213]	> 30 µM
Cn1cc(CNc2cncc(O)n2)cn1 [Example 214]	> 30 µM
OCc1cncc(NCc2cccnc2)n1 [Example 215]	> 30 µM
COc1cncc(NCc2ccc(N3CCN(c4ccccc4)CC3)nc2)n1 [Example 216]	> 30 µM
CNc1ccnc(NC)n1 [Example 217]	> 30 µM
CNc1cncc(Br)n1 [Example 218]	> 30 µM
